Tested on: desired test plant species
Test: Foliar-applied postemergence herbicidal activity in direct seeded rice (Table 6)
Format: in vivo
Conditions: 21 DAA
Description: Seeds or nutlets of the desired test plant species were planted in a soil matrix prepared by mixing a loam soil (43 percent silt, 19 percent clay, and 38 percent sand, with a pH of about 8.1 and an organic matter content of about 1.5 percent) and river sand in an 80 to 20 ratio. The soil matrix was contained in plastic pots with a surface area of 139.7 cm^2. When required to ensure good germination and healthy plants, a fungicide treatment and/or other chemical or physical treatment was applied. The plants were grown for 10-17 d in a greenhouse with an approximate 14-h photoperiod which was maintained at about 29° C. during the day and 26° C. during the night. Nutrients and water were added on a regular basis and supplemental lighting was provided with overhead metal halide 1000-Watt lamps as necessary. The plants were employed for testing when they reached the second or third true leaf stage. Treatments consisted of compounds 45, 34, and 66. Weighed amounts of technical compounds were placed in individual 25 mL glass vials and dissolved in 8 mL of 97:3 v/v acetone-DMSO to obtain stock solutions. […] The spray application solutions were prepared by removing 4 mL of the stock solution and diluting with 4 mL of 97:3 v/v acetone-DMSO and continued serial dilution to obtain 1⁄2×, 1⁄4×, 1⁄8×, and 1/16× rates of the high rate. Spray solutions were diluted to the appropriate final concentrations with the addition of 8 mL of an aqueous mixture of 1.875% (v/v) Agri-dex crop oil concentrate. The final 12-mL spray solutions each contained 1.25% (v/v) Agri-dex crop oil concentrate, 32.3% acetone, and 1.0% DMSO. Compound requirements are based upon a 12 mL application volume at a rate of 187 L/ha. Spray solutions were applied to the plant material with an overhead Mandel track sprayer equipped with […] nozzles calibrated to deliver 187 L/ha over an application area of 0.503 square meters (m^2) at a spray height of 18 inches ([…]) above average plant canopy height. Control plants were sprayed in the same manner with the solvent blank. The treated plants and control plants were placed in a greenhouse as described above and watered by sub-irrigation to prevent wash-off of the test compounds. After approximately 3 weeks, the condition of the test plants, compared with that of the untreated plants, was determined visually and scored on a scale of 0 to 100 percent where 0 corresponds to no injury and 100 corresponds to complete kill. By applying the well-accepted probit analysis as described by J. Berkson in Journal of the […], 48, 565 (1953) and by D. Finney in “Probit Analysis” Cambridge University Press (1952) or by plotting the mean data and fitting a logarithmic curve to the portion of the data where there was a dose response using Microsoft Excel®, the above data can be used to calculate GR50 and GR90 values, which are defined as growth reduction factors that correspond to the effective dose of herbicide required to kill or control 50 percent or 90 percent, respectively, of a target plant.

COc1c(C(=O)OCc2ccccc2)nc(-c2ccc(Cl)c(OC)c2F)c(F)c1N [Compound 66, benzyl 4-amino-6-(4-chloro-2-fluoro-3-methoxyphenyl)-5-fluoro-3-methoxypicolinate]
Mean Visual Injury (%)-21 Days After Application ECHCO (ECHCO (Echinochloa colonum, junglerice), 4.38 g ae/ha): 80%
Mean Visual Injury (%)-21 Days After Application ECHCO (ECHCO (Echinochloa colonum, junglerice), 8.75 g ae/ha): 89%
Mean Visual Injury (%)-21 Days After Application ECHCO (ECHCO (Echinochloa colonum, junglerice), 17.5 g ae/ha): 93%
Mean Visual Injury (%)-21 Days After Application ECHCO (ECHCO (Echinochloa colonum, junglerice), 35 g ae/ha): 94%
Mean Visual Injury (%)-21 Days After Application ECHCO (ECHCO (Echinochloa colonum, junglerice), 70 g ae/ha): 94%
GR50 ECHCO (ECHCO (Echinochloa colonum, junglerice), dose to kill or control 50 percent): <2.19 g ae/ha
GR90 ECHCO (ECHCO (Echinochloa colonum, junglerice), dose to kill or control 90 percent): 11.6 g ae/ha
Mean Visual Injury (%)-21 Days After Application LEFCH (LEFCH (Leptochloa chinensis, Chinese sprangletop), 2.19 g ae/ha): 0%
Mean Visual Injury (%)-21 Days After Application LEFCH (LEFCH (Leptochloa chinensis, Chinese sprangletop), 4.38 g ae/ha): 7%
Mean Visual Injury (%)-21 Days After Application LEFCH (LEFCH (Leptochloa chinensis, Chinese sprangletop), 8.75 g ae/ha): 15%
Mean Visual Injury (%)-21 Days After Application LEFCH (LEFCH (Leptochloa chinensis, Chinese sprangletop), 17.5 g ae/ha): 32%
Mean Visual Injury (%)-21 Days After Application LEFCH (LEFCH (Leptochloa chinensis, Chinese sprangletop), 35 g ae/ha): 26%
Mean Visual Injury (%)-21 Days After Application LEFCH (LEFCH (Leptochloa chinensis, Chinese sprangletop), 70 g ae/ha): 40%
GR50 LEFCH (LEFCH (Leptochloa chinensis, Chinese sprangletop), dose to kill or control 50 percent): >70 g ae/ha
GR90 LEFCH (LEFCH (Leptochloa chinensis, Chinese sprangletop), dose to kill or control 90 percent): >70 g ae/ha
Mean Visual Injury (%)-21 Days After Application ORYSA ‘Clearfield 171’ (ORYSA (Oryza sativa ‘Clearfield 171’, rice), 2.19 g ae/ha): 0%
Mean Visual Injury (%)-21 Days After Application ORYSA ‘Clearfield 171’ (ORYSA (Oryza sativa ‘Clearfield 171’, rice), 4.38 g ae/ha): 0%
Mean Visual Injury (%)-21 Days After Application ORYSA ‘Clearfield 171’ (ORYSA (Oryza sativa ‘Clearfield 171’, rice), 8.75 g ae/ha): 1%
Mean Visual Injury (%)-21 Days After Application ORYSA ‘Clearfield 171’ (ORYSA (Oryza sativa ‘Clearfield 171’, rice), 17.5 g ae/ha): 2%
Mean Visual Injury (%)-21 Days After Application ORYSA ‘Clearfield 171’ (ORYSA (Oryza sativa ‘Clearfield 171’, rice), 35 g ae/ha): 6%
Mean Visual Injury (%)-21 Days After Application ORYSA ‘Clearfield 171’ (ORYSA (Oryza sativa ‘Clearfield 171’, rice), 70 g ae/ha): 8%
GR50 ORYSA ‘Clearfield 171’ (ORYSA (Oryza sativa ‘Clearfield 171’, rice), dose to kill or control 50 percent): >70 g ae/ha
GR90 ORYSA ‘Clearfield 171’ (ORYSA (Oryza sativa ‘Clearfield 171’, rice), dose to kill or control 90 percent): >70 g ae/ha
Mean Visual Injury (%)-21 Days After Application ORYSA ‘Wells’ (ORYSA (Oryza sativa ‘Wells’, rice), 2.19 g ae/ha): 0%
Mean Visual Injury (%)-21 Days After Application ORYSA ‘Wells’ (ORYSA (Oryza sativa ‘Wells’, rice), 4.38 g ae/ha): 0%
Mean Visual Injury (%)-21 Days After Application ORYSA ‘Wells’ (ORYSA (Oryza sativa ‘Wells’, rice), 8.75 g ae/ha): 0%
Mean Visual Injury (%)-21 Days After Application ORYSA ‘Wells’ (ORYSA (Oryza sativa ‘Wells’, rice), 17.5 g ae/ha): 2%
Mean Visual Injury (%)-21 Days After Application ORYSA ‘Wells’ (ORYSA (Oryza sativa ‘Wells’, rice), 35 g ae/ha): 0%
Mean Visual Injury (%)-21 Days After Application ORYSA ‘Wells’ (ORYSA (Oryza sativa ‘Wells’, rice), 70 g ae/ha): 0%
GR50 ORYSA ‘Wells’ (ORYSA (Oryza sativa ‘Wells’, rice), dose to kill or control 50 percent): >70 g ae/ha
GR90 ORYSA ‘Wells’ (ORYSA (Oryza sativa ‘Wells’, rice), dose to kill or control 90 percent): >70 g ae/ha
Mean Visual Injury (%)-21 Days After Application SCPJU (SCPJU (Scirpus juncoides, Japanese bulrush), 2.19 g ae/ha): 100%
Mean Visual Injury (%)-21 Days After Application SCPJU (SCPJU (Scirpus juncoides, Japanese bulrush), 4.38 g ae/ha): 88%
Mean Visual Injury (%)-21 Days After Application SCPJU (SCPJU (Scirpus juncoides, Japanese bulrush), 8.75 g ae/ha): 100%
Mean Visual Injury (%)-21 Days After Application SCPJU (SCPJU (Scirpus juncoides, Japanese bulrush), 17.5 g ae/ha): 100%
Mean Visual Injury (%)-21 Days After Application SCPJU (SCPJU (Scirpus juncoides, Japanese bulrush), 35 g ae/ha): 100%
Mean Visual Injury (%)-21 Days After Application SCPJU (SCPJU (Scirpus juncoides, Japanese bulrush), 70 g ae/ha): 100%
GR50 SCPJU (SCPJU (Scirpus juncoides, Japanese bulrush), dose to kill or control 50 percent): <42.19 g ae/ha
GR90 SCPJU (SCPJU (Scirpus juncoides, Japanese bulrush), dose to kill or control 90 percent): 4.9 g ae/ha
Mean Visual Injury (%)-21 Days After Application SEBEX (SEBEX (Sesbania exaltata, hemp sesbania), 2.19 g ae/ha): 53%
Mean Visual Injury (%)-21 Days After Application SEBEX (SEBEX (Sesbania exaltata, hemp sesbania), 4.38 g ae/ha): 90%
Mean Visual Injury (%)-21 Days After Application SEBEX (SEBEX (Sesbania exaltata, hemp sesbania), 8.75 g ae/ha): 99%
Mean Visual Injury (%)-21 Days After Application SEBEX (SEBEX (Sesbania exaltata, hemp sesbania), 17.5 g ae/ha): 99%
Mean Visual Injury (%)-21 Days After Application SEBEX (SEBEX (Sesbania exaltata, hemp sesbania), 35 g ae/ha): 100%
Mean Visual Injury (%)-21 Days After Application SEBEX (SEBEX (Sesbania exaltata, hemp sesbania), 70 g ae/ha): 100%
GR50 SEBEX (SEBEX (Sesbania exaltata, hemp sesbania), dose to kill or control 50 percent): <2.19 g ae/ha
GR90 SEBEX (SEBEX (Sesbania exaltata, hemp sesbania), dose to kill or control 90 percent): 5.8 g ae/ha

Reference: patent US9518018B2, “3-alkoxy, thioalkyl and amino-4-amino-6-(substituted)picolinates and their use as herbicides” (Dow AgroSciences LLC, priority 2011, dated 2016)
